Reference: patent US20050112573A1, “Method of detecting toxic substance” (priority 2001, published 2005)

Test system: yeast genes (level of expressed mRNA)
Assay: DNA chip analysis of expressed mRNA of yeast genes after 2 h culture with a toxic chemical substance
Format: cell-based, Saccharomyces cerevisiae S288C
Method in brief: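 Values are treated-to-control fluorescence ratios from a whole-yeast-genome DNA chip (65° C, over 12 h hybridization) using Cy3/Cy5-labelled cDNA from mRNA. Log-phase S288C cells in YPD at 25° C were exposed 2 h to a toxicant at sublethal, growth-inhibiting concentration.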

manganese ethylenebis(dithiocarbamate) [(8)]
The level of expressed mRNA in the presence of chemical substance/ (yeast gene YNL074C, ratio to control without chemical substance, 2 h culture): 0.6
The level of expressed mRNA in the presence of chemical substance/ (yeast gene YNL092W, ratio to control without chemical substance, 2 h culture): 0.9
The level of expressed mRNA in the presence of chemical substance/The level of expressed mRNA in the absence of chemical substance (yeast gene YNL093W): 0.8
The level of expressed mRNA in the presence of chemical substance/ (yeast gene YNL115C, ratio to control without chemical substance, 2 h culture): 0.8
The level of expressed mRNA in the presence of chemical substance/ (yeast gene YNL156C, ratio to control without chemical substance, 2 h culture): 1.2
The level of expressed mRNA in the presence of chemical substance/ (yeast gene YNL234W, ratio to control without chemical substance, 2 h culture): 1.3
The level of expressed mRNA in the presence of chemical substance/ (yeast gene YNL281W, ratio to control without chemical): 1.2
The level of expressed mRNA in the presence of chemical substance/ (yeast gene YNL305C, ratio to control without chemical): 0.7
The level of expressed mRNA in the presence of chemical substance/The level of expressed mRNA in the absence of chemical substance (yeast gene YNL333W): 2.1
The level of expressed mRNA in the presence of chemical substance/The level of expressed mRNA in the absence of chemical substance (yeast gene YNR010W): 1.1
The level of expressed mRNA in the presence of chemical substance/ (yeast gene YNR068C, ratio to control without chemical): 1.1
The level of expressed mRNA in the presence of chemical substance/The level of expressed mRNA in the absence of chemical substance (yeast gene YNR069C): 1.4
The level of expressed mRNA in the presence of chemical substance/in the absence of chemical substance (yeast gene YNR072W): 0.9
The level of expressed mRNA in the presence of chemical substance/The level of expressed mRNA in the absence of chemical substance (yeast gene YOL013C): 1.0
The level of expressed mRNA in the presence of chemical substance/ (yeast gene YOL032W, ratio to control without chemical): 1.5
The level of expressed mRNA in the presence of chemical substance/ (yeast gene YOL036W, ratio to control without chemical): 0.8
The level of expressed mRNA in the presence of chemical substance/ (yeast gene YOL047C, ratio to control without chemical): 1.1
The level of expressed mRNA in the presence of chemical substance/ (yeast gene YOL071W, ratio to control without chemical): 1.6
The level of expressed mRNA in the presence of chemical substance/ (yeast gene YOL082W, ratio to control without chemical): 1.1
The level of expressed mRNA in the presence of chemical substance/ (yeast gene YOL083W, ratio to control without chemical): 1.3
The level of expressed mRNA in the presence of chemical substance/in the absence of chemical substance (yeast gene YOL096C): 1.0
The level of expressed mRNA in the presence of chemical substance/ (yeast gene YOL117W, ratio to control without chemical): 1.1
The level of expressed mRNA in the presence of chemical substance/ (yeast gene YOL131W, ratio to control without chemical): 1.1
The level of expressed mRNA in the presence of chemical substance/ (yeast gene YOL150C, ratio to control without chemical substance, 2 h culture): 3.7
The level of expressed mRNA in the presence of chemical substance/ (yeast gene YOL162W, ratio to control without chemical): 1.6
The level of expressed mRNA in the presence of chemical substance/The level of expressed mRNA in the absence of chemical substance (yeast gene YOL164W): 1.0
The level of expressed mRNA in the presence of chemical substance/ (yeast gene YOR019W, ratio to control without chemical): 1.1
The level of expressed mRNA in the presence of chemical substance/The level of expressed mRNA in the absence of chemical substance (yeast gene YOR036W): 1.4
The level of expressed mRNA in the presence of chemical substance/The level of expressed mRNA in the absence of chemical substance (yeast gene YOR117W): 1.0
The level of expressed mRNA in the presence of chemical substance/The level of expressed mRNA in the absence of chemical substance (yeast gene YOR124C): 1.3
The level of expressed mRNA in the presence of chemical substance/The level of expressed mRNA in the absence of chemical substance (yeast gene YOR132W): 1.2
The level of expressed mRNA in the presence of chemical substance/The level of expressed mRNA in the absence of chemical substance (yeast gene YOR157C): 1.2
The level of expressed mRNA in the presence of chemical substance/in the absence of chemical substance (yeast gene YOR180C): 0.9
The level of expressed mRNA in the presence of chemical substance/The level of expressed mRNA in the absence of chemical substance (yeast gene YOR181W): 0.7
The level of expressed mRNA in the presence of chemical substance/The level of expressed mRNA in the absence of chemical substance (yeast gene YOR185C): 1.4
The level of expressed mRNA in the presence of chemical substance/ (yeast gene YOR197W, ratio to control without chemical): 0.9
The level of expressed mRNA in the presence of chemical substance/The level of expressed mRNA in the absence of chemical substance (yeast gene YOR198C): 1.3
The level of expressed mRNA in the presence of chemical substance/The level of expressed mRNA in the absence of chemical substance (yeast gene YOR259C): 1.1
The level of expressed mRNA in the presence of chemical substance/The level of expressed mRNA in the absence of chemical substance (yeast gene YOR261C): 2.6
The level of expressed mRNA in the presence of chemical substance/The level of expressed mRNA in the absence of chemical substance (yeast gene YOR288C): 1.9
The level of expressed mRNA in the presence of chemical substance/The level of expressed mRNA in the absence of chemical substance (yeast gene YOR355W): 0.8
The level of expressed mRNA in the presence of chemical substance/in the absence of chemical substance (yeast gene YOR363C): 1.1
The level of expressed mRNA in the presence of chemical substance/The level of expressed mRNA in the absence of chemical substance (yeast gene YOR383C): 1.0
The level of expressed mRNA in the presence of chemical substance/ (yeast gene YPL087W, ratio to control without chemical): 1.0
The level of expressed mRNA in the presence of chemical substance/The level of expressed mRNA in the absence of chemical substance (yeast gene YPL089C): 0.8
The level of expressed mRNA in the presence of chemical substance/The level of expressed mRNA in the absence of chemical substance (yeast gene YPL109C): 1.1
The level of expressed mRNA in the presence of chemical substance/The level of expressed mRNA in the absence of chemical substance (yeast gene YPL149W): 1.1
The level of expressed mRNA in the presence of chemical substance/The level of expressed mRNA in the absence of chemical substance (yeast gene YPL154C): 0.8
The level of expressed mRNA in the presence of chemical substance/ (yeast gene YPL196W, ratio to control without chemical): 1.2
The level of expressed mRNA in the presence of chemical substance/ (yeast gene YPL206C, ratio to control without chemical): 1.0
The level of expressed mRNA in the presence of chemical substance/ (yeast gene YPL222W, ratio to control without chemical): 0.7
The level of expressed mRNA in the presence of chemical substance/ (yeast gene YPR023C, ratio to control without chemical): 0.9
The level of expressed mRNA in the presence of chemical substance/The level of expressed mRNA in the absence of chemical substance (yeast gene YPR103W): 1.0
The level of expressed mRNA in the presence of chemical substance/The level of expressed mRNA in the absence of chemical substance (yeast gene YPR108W): 1.6
The level of expressed mRNA in the presence of chemical substance/ (yeast gene YPR151C, ratio to control without chemical): 1.4
The level of expressed mRNA in the presence of chemical substance/in the absence of chemical substance (yeast gene YPR184W): 0.7
